Assays:
Type in all cases: cell-based
[1] = tested on: mCherry-GAL9 expressing SHSY5Y cells; experiment: GAL9 recruitment assay, SHSY5Y; settings: calculated mean from >3 independent exp.
How it was run: (§1)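 Readout is GAL9 relocalization to damaged endosomes, scored as mCherry-GAL9 structures counted in confocal images after fixation in 4% paraformaldehyde and Hoechst 33342 nuclear staining. Compounds were applied in dose-response to stably expressing cells seeded one day earlier; three independent experiments with duplicate wells.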

[2] = tested on: mCherry-GAL9 expressing HeLa cells; experiment: GAL9 recruitment assay, HeLa; settings: calculated mean from >3 independent exp.
How it was run: as §1

[3] = tested on: mCherry-GAL9 expressing NCI-H358 cells; experiment: GAL9 recruitment assay, NCI-H358; settings: calculated mean from >3 independent exp.
How it was run: as §1

[4] = tested on: mCherry-GAL9 expressing 16HBE cells; experiment: GAL9 recruitment assay, 16HBE; settings: calculated mean from >3 independent exp.
How it was run: as §1

[5] = tested on: mCherry-GAL9 expressing HEK293 cells; experiment: GAL9 recruitment assay, HEK293; settings: calculated mean from >3 independent exp.
How it was run: as §1

[6] = tested on: HeLa_Luc705 cells (pLuc/705 splice-switching reporter); experiment: Functional 705-SSO delivery, luciferase splice-switching assay; settings: HeLa-Luc705 + 2 µM SSO; EEE 2.5 - 3 µM; mean from >3 independent experiments
How it was run: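 Splice correction was measured as firefly luciferase luminescence in Triton X-100 lysates taken 24 h after enhancer treatment. Before treatment, the 10,000 cells/well had spent 24 h with 1–2 μM 705-SSO (2′-OMe, phosphorothioate). For comparison, 100–200 nM SSO was lipofected with LF2000.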

[7] = tested on: mCherry-GAL9 expressing HuH7 cells; experiment: GAL9 recruitment assay, HuH7; settings: calculated mean from >3 independent exp.
How it was run: as §1

[8] = tested on: mCherry-GAL9 expressing HepG2 cells; experiment: GAL9 recruitment assay, HepG2; settings: calculated mean from >3 independent exp.
How it was run: as §1

[9] = tested on: mCherry-GAL9 expressing U2OS cells; experiment: GAL9 recruitment assay, U2OS; settings: calculated mean from >3 independent exp.
How it was run: as §1

## COc1nn(C2CCN(CCCO)CC2)cc1Nc1ncc(F)c(-n2ccc3c(C#N)cccc32)n1 [EEE12]
[1]; EEE 0.31 µM
  Gal9 response compared to reference: 0.014
[1]; EEE 0.62 µM
  Gal9 response compared to reference: 0.271
[1]; EEE 1.25 µM
  Gal9 response compared to reference: 0.742
[1]; EEE 2.5 µM
  Gal9 response compared to reference: 0.706
[1]; EEE 5 µM
  Gal9 response compared to reference: 0.575
[1]; EEE 10 µM
  Gal9 response compared to reference: 0.177
[2]; EEE 0.31 µM
  Gal9 response compared to reference: 0.005
[2]; EEE 0.62 µM
  Gal9 response compared to reference: 0.015
[2]; EEE 1.25 µM
  Gal9 response compared to reference: 0.195
[2]; EEE 2.5 µM
  Gal9 response compared to reference: 0.550
[2]; EEE 5 µM
  Gal9 response compared to reference: 0.394
[2]; EEE 10 µM
  Gal9 response compared to reference: 0.118
[3]; EEE 0.31 µM
  Gal9 response compared to reference: 0.018
[3]; EEE 0.62 µM
  Gal9 response compared to reference: 0.032
[3]; EEE 1.25 µM
  Gal9 response compared to reference: 0.128
[3]; EEE 2.5 µM
  Gal9 response compared to reference: 0.574
[3]; EEE 5 µM
  Gal9 response compared to reference: 0.607
[3]; EEE 10 µM
  Gal9 response compared to reference: 0.422
[4]; EEE 0.31 µM
  Gal9 response compared to reference: 0.014
[4]; EEE 0.62 µM
  Gal9 response compared to reference: 0.063
[4]; EEE 1.25 µM
  Gal9 response compared to reference: 0.180
[4]; EEE 2.5 µM
  Gal9 response compared to reference: 0.658
[4]; EEE 5 µM
  Gal9 response compared to reference: 0.681
[4]; EEE 10 µM
  Gal9 response compared to reference: 0.421
[5]; EEE 0.31 µM
  Gal9 response compared to reference: 0.023
[5]; EEE 0.62 µM
  Gal9 response compared to reference: 0.122
[5]; EEE 1.25 µM
  Gal9 response compared to reference: 0.432
[5]; EEE 2.5 µM
  Gal9 response compared to reference: 0.716
[5]; EEE 5 µM
  Gal9 response compared to reference: 0.604
[5]; EEE 10 µM
  Gal9 response compared to reference: 0.273
[6]
  Luciferase expression compared to reference: 1.720
[7]; EEE 0.31 µM
  Gal9 response compared to reference: 0.014
[7]; EEE 0.62 µM
  Gal9 response compared to reference: 0.031
[7]; EEE 1.25 µM
  Gal9 response compared to reference: 0.143
[7]; EEE 2.5 µM
  Gal9 response compared to reference: 0.357
[7]; EEE 5 µM
  Gal9 response compared to reference: 0.232
[7]; EEE 10 µM
  Gal9 response compared to reference: 0.103
[8]; EEE 0.31 µM
  Gal9 response compared to reference: 0.008
[8]; EEE 0.62 µM
  Gal9 response compared to reference: 0.010
[8]; EEE 1.25 µM
  Gal9 response compared to reference: 0.038
[8]; EEE 2.5 µM
  Gal9 response compared to reference: 0.146
[8]; EEE 5 µM
  Gal9 response compared to reference: 0.517
[8]; EEE 10 µM
  Gal9 response compared to reference: 0.574
[9]; EEE 0.31 µM
  Gal9 response compared to reference: 0.013
[9]; EEE 0.62 µM
  Gal9 response compared to reference: 0.017
[9]; EEE 1.25 µM
  Gal9 response compared to reference: 0.057
[9]; EEE 2.5 µM
  Gal9 response compared to reference: 0.299
[9]; EEE 5 µM
  Gal9 response compared to reference: 0.511
[9]; EEE 10 µM
  Gal9 response compared to reference: 0.588

## CCN1CCC(n2cc(Nc3ncc(F)c(-n4ccc5c(C#N)cccc54)n3)c(OC)n2)CC1 [EEE11]
[1]; EEE 0.31 µM
  Gal9 response compared to reference: 0.014
[1]; EEE 0.62 µM
  Gal9 response compared to reference: 0.018
[1]; EEE 1.25 µM
  Gal9 response compared to reference: 0.385
[1]; EEE 2.5 µM
  Gal9 response compared to reference: 0.801
[1]; EEE 5 µM
  Gal9 response compared to reference: 0.691
[1]; EEE 10 µM
  Gal9 response compared to reference: 0.469
[2]; EEE 0.31 µM
  Gal9 response compared to reference: 0.005
[2]; EEE 0.62 µM
  Gal9 response compared to reference: 0.004
[2]; EEE 1.25 µM
  Gal9 response compared to reference: 0.013
[2]; EEE 2.5 µM
  Gal9 response compared to reference: 0.253
[2]; EEE 5 µM
  Gal9 response compared to reference: 0.553
[2]; EEE 10 µM
  Gal9 response compared to reference: 0.370
[3]; EEE 0.31 µM
  Gal9 response compared to reference: 0.016
[3]; EEE 0.62 µM
  Gal9 response compared to reference: 0.020
[3]; EEE 1.25 µM
  Gal9 response compared to reference: 0.036
[3]; EEE 2.5 µM
  Gal9 response compared to reference: 0.143
[3]; EEE 5 µM
  Gal9 response compared to reference: 0.614
[3]; EEE 10 µM
  Gal9 response compared to reference: 0.576
[4]; EEE 0.31 µM
  Gal9 response compared to reference: 0.013
[4]; EEE 0.62 µM
  Gal9 response compared to reference: 0.013
[4]; EEE 1.25 µM
  Gal9 response compared to reference: 0.056
[4]; EEE 2.5 µM
  Gal9 response compared to reference: 0.167
[4]; EEE 5 µM
  Gal9 response compared to reference: 0.507
[4]; EEE 10 µM
  Gal9 response compared to reference: 0.623
[5]; EEE 0.31 µM
  Gal9 response compared to reference: 0.027
[5]; EEE 0.62 µM
  Gal9 response compared to reference: 0.022
[5]; EEE 1.25 µM
  Gal9 response compared to reference: 0.106
[5]; EEE 2.5 µM
  Gal9 response compared to reference: 0.438
[5]; EEE 5 µM
  Gal9 response compared to reference: 0.779
[5]; EEE 10 µM
  Gal9 response compared to reference: 0.493
[6]
  Luciferase expression compared to reference: 2.093
[7]; EEE 0.31 µM
  Gal9 response compared to reference: 0.009
[7]; EEE 0.62 µM
  Gal9 response compared to reference: 0.008
[7]; EEE 1.25 µM
  Gal9 response compared to reference: 0.023
[7]; EEE 2.5 µM
  Gal9 response compared to reference: 0.154
[7]; EEE 5 µM
  Gal9 response compared to reference: 0.258
[7]; EEE 10 µM
  Gal9 response compared to reference: 0.222
[8]; EEE 0.31 µM
  Gal9 response compared to reference: 0.009
[8]; EEE 0.62 µM
  Gal9 response compared to reference: 0.008
[8]; EEE 1.25 µM
  Gal9 response compared to reference: 0.007
[8]; EEE 2.5 µM
  Gal9 response compared to reference: 0.019
[8]; EEE 5 µM
  Gal9 response compared to reference: 0.163
[8]; EEE 10 µM
  Gal9 response compared to reference: 0.568
[9]; EEE 0.31 µM
  Gal9 response compared to reference: 0.012
[9]; EEE 0.62 µM
  Gal9 response compared to reference: 0.015
[9]; EEE 1.25 µM
  Gal9 response compared to reference: 0.018
[9]; EEE 2.5 µM
  Gal9 response compared to reference: 0.048
[9]; EEE 5 µM
  Gal9 response compared to reference: 0.317
[9]; EEE 10 µM
  Gal9 response compared to reference: 0.483
